For one test, the system named is MDR E. coli. Nature of the test: Antibiotic IC50 measurement (Resazurin) in clinical isolates. It is filed as cell-based, Escherichia coli. Conditions: 24 h growth. As for the experimental part: Overnight cultures of clinical isolates were diluted to a 0.5 McFarland standard in CAMHB with respective test concentration of antibiotic. Cultures were grown for 24 h at 37° C. with 225 rpm shaking. After 24 h of growth, Resazurin sodium salt (Sigma Aldrich) solution was added and the reaction was monitored for fluorescence measuring every 5 min for 4 h at 37° C. with 225 rpm shaking using 485/610 nm filters. The slope of Resazurin fluorescence was used a quantitative measure of cell metabolism. The IC50 was determined as the concentration of antibiotic which caused a 50% reduction in slope compared to the same biological replicate in no treatment.

Another test has as its system MDR S. typhimurium. The test is described as above. It is filed as cell-based, Salmonella typhimurium. Particulars: 24 h growth. As for the experimental part: Overnight cultures of clinical isolates were diluted to a 0.5 McFarland standard in CAMHB with respective test concentration of antibiotic. […] The slope of Resazurin fluorescence was used a quantitative measure of cell metabolism.

The subject of a further test is ESBL K. pneumoniae. Put plainly: Combinatorial experiments CdTe-2.4 with antibiotic, growth (optical density). Type of test: cell-based, Klebsiella pneumoniae. Particulars: breakpoint amount of streptomycin, without CdTe-2.4. As for the experimental part:
Five antibiotic concentrations were selected for each strain, so that the levels tested would be below the IC50, near the CLSI or defined breakpoint, and near the IC50. Concentrations of CdTe-2.4 were held constant for all strains at 12.5 nM, 25 nM, and 50 nM. Using these metrics, three biological replicates were tested from each strain with 15 test conditions as well as monotherapy controls and a no treatment condition. Clinical strains were diluted 1:100 from overnight into test condition and grown at 37° C. with 225 rpm. Optical density was measured every 30 min for the first 3 h and every hour subsequently until 8 h. After 8 h of growth, Resazurin sodium salt solution was added and the reaction was monitored for fluorescence measuring every 5 min for 4 h at 37° C. with 225 rpm shaking using 485/610 nm filters. The slope of Resazurin fluorescence was used a quantitative measure of cell metabolism.

As for `O=C(N[C@H](CO)[C@H](O)c1ccc([N+](=O)[O-])cc1)C(Cl)Cl` [chloramphenicol], the “sensitivity to antibiotic (IC50 versus CLSI or breakpoint)” value in the test with MDR E. coli and with MDR S. typhimurium was “sensitive” each time.

For `[H]/N=C(/N)N[C@H]1[C@H](O)[C@@H](O)[C@H](O[C@@H]2O[C@@H](C)[C@](O)(C=O)[C@H]2O[C@@H]2O[C@@H](CO)[C@H](O)[C@@H](O)[C@@H]2NC)[C@@H](N/C(N)=N\[H])[C@@H]1O` [streptomycin], the “effect of antibiotic alone on growth” value in the test with ESBL K. pneumoniae is given as “previously ineffective”.

Source of the values: patent publication US10548979B2, “Light-activated compositions and methods using the same” (THE REGENTS OF THE UNIVERSITY OF COLORADO, A BODY CORPORATE, priority 2015, dated 2020).
